Laboratory results: a melting point compilation (Tetko et al.; mined from patent text by program, amines drawn as free bases though some values may be those of a salt)

In the case of `CN(C)c1cccc2c(S(=O)(=O)Nc3ncc(Cl)cc3Cl)cccc12`, the melting point is reported as 161 to 163 °C. For `CC(C)(C)Nc1c([N+](=O)[O-])cnc2ccccc12`, the melting point was 106 to 108 °C. `CCOC(=O)c1c(CCl)nc2sc3c(c2c1-c1ccc(OC)c(OC)c1)CCCN3C(=O)OCc1ccccc1` gave a melting point of 178 to 179 °C. In the case of `Cc1ccc(S(=O)(=O)OCC(C)O)cc1` (racemic), the melting point is reported as 49.5 to 50 °C. In the case of `N#CCC(O)(c1ccc(-c2ccccc2)cc1)c1ccc(-c2ccccc2)cc1`, the melting point is reported as 168 to 170 °C. `CCCCc1cc(CCCC)n2ncc(Br)c2n1` gave a melting point of 47 to 48 °C. Compound `COc1cccc2c1CCc1c-2nc2ccccc2c1N` has a melting point of 126 to 129 °C. `CN(C)CCNc1nccc(N2CCCCCC2)n1` showed a melting point of 53 to 54.5 °C. With `CC(COc1ccc(CC(=O)O)cc1Cl)NCC(O)c1cccc(Cl)c1` (stereo not given) the melting point was 188 to 192 °C. `C#CCn1nc(-c2ccc(Cl)cc2)n(CC)c1=O` showed a melting point of 115 to 119 °C. In the case of `COc1ccc(F)cc1N1CCN(CCCN2Cc3cc(Cl)c(S(N)(=O)=O)cc3C2=O)CC1`, the melting point is reported as 158 to 163 °C. For `Cn1cc(CC(=O)O)c(OCc2ccc(OCc3csc(-c4ccccc4)n3)nc2)n1`, the melting point was 156 to 157 °C. Compound `CSCn1c(Br)c(Br)c(C#N)c1-c1ccc(C(F)(F)F)cc1` has a melting point of 140 to 145 °C. For `Cc1cc(Br)ccc1-n1c(C(F)(F)F)nn(C)c1=O`, the melting point was 80 to 83 °C. Compound `CCNc1nc2ccccc2n(-c2ccc(Cl)cc2)c1=O` has a melting point of 192 to 195 °C. For `O=c1c2c[nH]c3c(c-2nn1-c1ccccc1)CCC3`, the melting point was > 350 °C. With `COC(=O)C1Oc2ccc(OC)cc2C(C)(c2ccccc2)O1` (stereo not given) the melting point was 70 to 71 °C. Work on `O=[N+]([O-])c1ccc(Cl)cc1NC1CCN(Cc2ccccc2)CC1` yielded a melting point of 84 °C. For `Cc1ccc2c(c1)C(NC(=O)CCCN1CCN(c3ccc(F)cc3)CC1)c1ccccc1CS2(=O)=O` (stereo not given), the melting point was 163 to 165 °C. `CCCc1c(OCCCOc2ccc3c(c2CCC)OC(C(=O)OC)CC3)ccc(C(C)=O)c1O` (stereo not given) showed a melting point of 70 to 72 °C. For `Cc1nc(NC(=O)Nc2ccc(F)cc2)sc1C(=O)NCc1ccccc1`, the melting point was > 300 °C. For `CN(C)CCCSc1cccc2c1NC(=O)CC2c1ccccc1` (stereo not given), the melting point was 64 to 66 °C. `CSc1nc(N)c2ncn(COCCO)c2n1` gave a melting point of 174 to 176 °C. `CC[C@@H](NC(=O)N1CC(=O)NC[C@@H](Cc2cc(Cl)ccc2OC)C1=O)c1cncc(C(=O)O)c1` gave a melting point of 138 to 140 °C. `Cn1c(=O)c(C#N)c(N2CCN(C(=O)c3cccs3)CC2)c2cccnc21` showed a melting point of 266 °C. With `Cc1ccccc1-n1c(-c2cc(-c3ccc(Cl)cc3)c(N3CCOCC3)s2)nc2ccccc2c1=O` the melting point was 186 to 189 °C. In the case of `COCCOc1ccc(/C=C/COC(=O)NS(=O)(=O)NCCOC(C)C)c(Oc2ncc(C(F)(F)F)cc2Cl)c1`, the melting point is reported as 127 to 128 °C. With `O=C(c1ccc(I)cc1)c1ccc2c(c1)c(-c1cccc(Cl)c1)nc1nnnn12` the melting point was 175 °C. Work on `COc1cc(OC)n2nc(N)nc2n1` yielded a melting point of 215 to 220 °C. `COc1ccc(NC(=O)c2c(Cl)cccc2Cl)cc1OC1CCCC1` gave a melting point of 184 to 185 °C. `CSc1cnc2cc(Cl)sc2c1O` gave a melting point of 235 to 237 °C. For `COc1ccc(C=O)c(Cl)c1Cl`, the melting point was 112 to 113 °C. With `O=c1c2c(Cc3ccccc3)n[nH]c2c2cnccc2n1-c1ccccc1` the melting point was 284 to 287 °C. With `N#CC[C@@H](O)CC(=O)NN` the melting point was 134 to 136 °C. `CCOC(=O)C=Cc1ccc(OC(C)C)c(OC)c1` gave a melting point of 103 to 104 °C. With `CCOCc1nc2c(N)nc3cc(-c4cccc(C(=O)N5CCCC5)c4)ccc3c2n1CC(C)(C)O` the melting point was 216 to 218 °C. Compound `CCc1c(CC)n(Cc2ccccc2Cl)c2cc(C(N)=O)ccc12` has a melting point of 185 to 188 °C. For `C/C(=C\c1ccc(C(=O)Nc2nnn[nH]2)cc1)c1ccc2c(c1)C(C)(C)CCO2`, the melting point was > 250 °C. In the case of `CC(C)CCC(=O)N[C@@H]1N=C(c2ccccc2)c2ccccc2N(C)C1=O`, the melting point is reported as 123 to 125 °C. With `Cc1ccc(-n2nc(O)c3[nH]c4cc(Cl)ccc4c(=O)c3c2=O)cc1` the melting point was 368 to 370 °C.
